Patent publication US20040232089A1, “Biocidal compounds for treating water” (VANETTA S.p.A., priority 2003, published 2004)

Experiments:
Chlorella sp. = experiment: Inhibition of planktonic microalgae duplication; assay type: cell-based; settings: after 96 hours of treatment
Procedure: This test was carried out by using the microalga Chlorella sp., it is a small (2-10 microns diameter) green single celled microalga with a spherical cell shape. This genus is capable of both autotrophic and heterotrophic growth which may contribute to its ability to rapidly overtake other algae in culture. In laboratory, Chlorella coltures are started by taking from the branchs, inoculates basis, about 10 ml of monospecific colture, and adding 700 ml of […] filtered sea-water, enriched with Walne colture medium and vitamins.
Flasks with algae are kept in a thermostatic room, at 20° C.±0,5; lighting is supplied by 30 watt fluorescent neon tubes and by a 18 watt Osram-fluora lamp, with a photoperiod 16:8 light:dark. Oxygenation is warranted by a continuous air flux in the flask, this is also a way to avoid cells sedimentation. Test was carried out in the thermostatic room, at 20° C., with a 16:8 light:dark cycle in glass test-tube. The tested product has been dissolved in the culture medium, at a double concentration respect to the final wanted. […] Test-tubes were aerated, and kept in thermostatic room for 96 hours; after this period of time an aliquot of each replicate for each concentration was taken, and cellular densities were counted using an haemocytometer.

[1] = test system: Balanus amphitrite nauplii; experiment: Barnacle efficacy test; assay type: in vivo
Procedure: This efficacy tests was carried out by using Balanus amphitrite nauplii (Crustacea: Cirripedia). Specimens of this organism are collected in nature, and then maintained and reared in our laboratories, following a standard methodology. Adult organisms regularly produce larvae at the second naupliar stage, characterized by the typical triangular carapace, with a shield shape. […] Stage II nauplii have been used; immediately after their emission from adults larvae were divided and put in a beaker with […] filtered natural sea-water.

[2] = test system: Mytilus galloprovincialis; experiment: Mussels efficacy test (trocophora and veliger larvae); assay type: in vivo; settings: after 24 hours
Procedure: Mussels are bivalve shellfish that grow quickly and profusely. They have two identical, convex shells. These shells are elongate, triangular and joined by a rubbery hinge ligament on the upper side. There are three main periods in the Mytilus galloprovincialis life cycle: the larval, juvenile, and adult stages. The larvae are planktonic (float in water column) during their initial three life stages: trochophore, veliger, and pediveliger.
Efficacy tests were carried out by using two larval stages of this organism: trocophora and veliger. Adult specimens of this organism were collected and transferred into our laboratories, where they were cleaned from debris, and put in single 200 ml beakers, with […] filtered natural sea-water. Through a thermal shock, sexual products (eggs and sperma) were obtained. Fertilized eggs (about 300.000) were filtered and put in 1000 ml beakers, with […] filtered natural sea-water. Cultures were maintained at 20° C., with a photoperiod of 16:8 light:dark. After the first 24 hours post-fertilization, trocophora stage is present. Larvae were reared and fed with a planktonic alga, Pavlova lutheri, every day they were filtered, and water was changed. Veliger stage is reached about 48-72 hours after fertilization.

Tigriopus fulvus = experiment: Copepods efficacy test; assay type: in vivo; settings: Tigriopus fulvus nauplii
Procedure: For that, efficacy test was carried out by using Tigriopus fulvus, it is a shallow-water marine species (Crustacea, Copepoda, Harpactico.da) characterized by […], all variously deep-orange coloured: five nauplius substages and five copepodid substages. Nauplii have a subcircular shape, are characterized by a single red eye, and develop within 6 to 7 days. Copepods are recognisable because of their abdominal segment formation, although the last substage is difficult to distinguish from the adult female at the end of the 7-day development period. Adult sizes range from 0.8 to 1.0 mm for males and from 1.0 to 1.2 mm for females. Sexual dimorphism is detectable only by the pincer shape of antenna 1, whereas ovigerous females can quickly be recognized because of their large egg sacs. T. fulvus is a vector for the transport of Vibrio spp; it is well documented that the persistence of V. cholerae in the aquatic environment is facilitated by its ability to colonize various substrates, including zooplankton surfaces (i.e., copepods).
Copepods, sampled in their natural habitat, have been moved through suitable containers to the laboratory, where they were subjected to a specific treatment. They were first filtered through a […] mesh, then washed with sterile sea-water and transferred to small 3 litres aquaria, with natural filtered (0.22 μm) sea water, T=20+0,5° C. Copepods were fed with microalgae (Chlorella spp, Tetraselmis suecica) and commercial yeast (Saccharomices spp). After the acclimatization period (one month), about 500 females were chosen and separated. The naupliar stage was then used for the efficacy test. […] Nauplii were used 24 hours after their hatching, multiwell plates (25 wells) were used for these tests, about 15 individuals for each well. Each concentration was performed in six replicates, plates were kept at dark, at 20° C.

[3] = test system: Bacillus subtilis ATCC 10774; experiment: Disk diffusion test (Kirby-Bauer); assay type: cell-based; settings: 100 μg MNB disk, 24 hours in the dark
Procedure: (§1) a) Kirby-Bauer assay was carried out after 24 hours in the dark.
(§2) In the disk diffusion susceptibility test, paper disks containing known amounts of MNB are placed on the surface of an agar plate that has been inoculated confluently with a standardized suspension of an indicator bacterial strain. The antimicrobial agent diffuses into the medium causing a zone of inhibition of growth of the strain around the disk corresponding to the susceptibility of the strain to that agent. Interpretative zone diameters have been established to permit classifying an isolate as belonging to the susceptible, intermediate resistance, or resistant categories of susceptibilities to an antimicrobial agent.
(§3) The disk diffusion method on agar plates was used to assess the biocide efficacy of a single concentration of MNB ([…]) against four aerobic quality control strains (Pseudomonas aeruginosa ATCC10145, Pseudomonas elongata NCIMB 1141, Bacillus subtilis ATCC 10774 and Staphylococcus aureus ATCC 25923).
(§4) Test results are summarised in Table 5 and represent the size of the inhibition halos in millimetres after contact with 100 μg MNB (Disk diffusion method).

[4] = test system: Pseudomonas aeruginosa ATCC 10145; experiment: Disk diffusion test (Kirby-Bauer); assay type: cell-based; settings: 100 μg MNB disk, 24 hours in the dark
Procedure: as §1, §2, §3, §4

[5] = test system: Pseudomonas elongata NCIMB 1141; experiment: Disk diffusion test (Kirby-Bauer); assay type: cell-based; settings: 100 μg MNB disk, 24 hours in the dark
Procedure: as §1, §2, §3, §4

[6] = test system: Staphylococcus aureus ATCC 25923; experiment: Disk diffusion test (Kirby-Bauer); assay type: cell-based; settings: 100 μg MNB disk, 24 hours in the dark
Procedure: as §1, §2, §3, §4

[7] = test system: nauplii of Artemia salina; experiment: Artemia efficacy test
Procedure: This efficacy test was carried out by using nauplii of Artemia salina (Crustacea: Anacostraca).
Cysts reactivation has been carried out 24 hours before the execution of tests. […] Beakers, hermetically closed and aerated with pre-filtered air (0,22 μm), were incubated for 24 hours at 25° C., without photoperiod. For the tests E3 developing stage nauplii were employed (24 hours after cysts reactivation). Nauplii were divided from not-opened cysts by exploiting their positive fototactism: a light beam is placed near the beaker, obtaining a considerable concentration of organisms, that can be taken by using a Pasteur pipette. The following MNB concentrations have been tested: 0-0.05-0.1-0.5-1-5-10 ppm (mg/L). These solutions have been prepared immediately before carrying out the tests using natural filtered (0.22 μm) sea water (NFSW). For tests, multiwell plates (25 wells) have been used, each well has a capacity of 4 ml. In the first column there was the control solution (water without product), and in the following the different concentrations in increasing order. In each well about 20-25 individuals were added, each concentration was repeated in four replicates. Multiwell plates, hermetically closed with parafilm and lid, were incubated at dark for 24-48 hours at 25° C. […] Larvae were considered dead when there was completely no movement for 10 seconds.
Mortality percentage was calculated as the mean of the four replicates for each concentration. Data were analysed by using the Probits method, in order to calculate the lethal concentration for the 50% of the population (LC50).

SMILES: CC1(S(=O)(=O)O)CC(=O)c2ccccc2C1=O.NC(=O)c1cccnc1 (centres unmarked) [MNB, menadione nicotinamide bisulphite]
- LC1 (Chlorella sp.): 0.002 mg/L
- LC50 (Chlorella sp.): 0.055 µg/mL
- LC50 ([1]; 24 hours): 0.228 µg/mL
- LC50 ([1]; 48 hours): 0.222 µg/mL
- LC50 ([2]; trocophorae): 0.108 µg/mL
- LC50 ([2]; veliger): 0.167 µg/mL
- LC50 (Tigriopus fulvus; 24 hours): 0.156 µg/mL
- LC50 (Tigriopus fulvus; 48 hours): 0.071 µg/mL
- LC50 (Tigriopus fulvus; 72 hours): 0.039 µg/mL
- size of the inhibition halos [3]: 0 mm
- size of the inhibition halos [4]: 0 mm
- size of the inhibition halos [5]: 20 mm
- size of the inhibition halos [6]: 20 mm
- LC1 ([7]; 24 hours): 3.170 mg/L
- LC50 ([7]; 24 hours): 7.625 µg/mL
- LC1 ([7]; 48 hours): 0.548 mg/L
- LC50 ([7]; 48 hours): 1.840 µg/mL
